In patent US10071984B2, “Histone demethylase inhibitors” (Celgene Quanticel Research, Inc., priority 2014, dated 2018):

Columns and labels:
PHF8 = PHF8 (Homo sapiens (Human), UniProt Q9UPP1); experiment: PHF8 in vitro enzyme inhibition assay (TR-FRET); assay type: biochemical; conditions: 3 nM PHF8, H3K9me1-biotin peptide
Text: (§1) This assay determines the ability of a test compound to inhibit FBXL11, FBXL10, and PHF8 demethylase activity. Baculovirus expressed FBXL11 (GenBank Accession #NM_012308, AA1-1162) was purchased from BPS Bioscience (Cat#50102). Baculovirus expressed FBXL10 (GenBank Accession #NM_032590, AA 1-650) was purchased from BPS Bioscience (Cat #50120). Baculovirus expressed PHF8 (GenBank Accession NP_055922.1) was purchased from Active Motif (Cat#31435).
The ability of test compounds to inhibit the activity of PHF8 was determined in 384-well plate format under the following reaction conditions: 3 nM PHF8, 200 nM H3K9me1-biotin labeled peptide (Anaspec cat #64358), 0.5 μM alpha-ketoglutaric acid in assay buffer of 50 mM HEPES, pH7.3, 0.005% Brij35, 0.5 mM TCEP, 0.2 mg/ml BSA, 50 μM sodium L-ascorbate, and 5 μM ammonium iron(II) sulfate. Reaction product was determined quantitatively by TR-FRET after the addition of detection reagent Phycolink Streptavidin-allophycocyanin (Prozyme) and Europium-anti-unmodified-histone H3 lysine 9/lysine27 (H3K9/K27) antibody (PerkinElmer) in the presence of 5 mM EDTA in LANCE detection buffer (PerkinElmer) at a final concentration of 25 nM and 0.5 nM, respectively.
The assay reaction was initiated by the following: 2 μl of the mixture of 600 nM H3K9me1-biotin labeled peptide and 1.5 μM alpha-ketoglutaric acid with 2 μl of 11-point serial diluted inhibitor in 3% DMSO were added to each well of the plate, followed by the addition of 2 μl of 9 nM PHF8 to initiate the reaction. The reaction mixture was incubated at room temperature for 15 minutes, and terminated by the addition of 6 μl of 5 mM EDTA in LANCE detection buffer containing 50 nM Phycolink Streptavidin-allophycocyanin and 1 nM Europium-anti-unmodified H3K9/K27 antibody. Plates were read by EnVision Multilabel Reader in TR-FRET mode (excitation at 320 nm, emission at 615 nm and 665 nm) after 1 hour incubation at room temperature. A ratio was calculated (665/615) for each well and fitted to determine inhibition constant (IC50).
(§2) The ability of the compounds disclosed herein to inhibit demethylase activity was quantified and the respective IC50 value was determined.

FBXL10 = FBXL10 (Homo sapiens (Human), UniProt Q8NHM5); experiment: FBXL10 in vitro enzyme inhibition assay (AlphaScreen); assay type: biochemical; conditions: 0.3 nM FBXL10, H3K36me2-biotin peptide
Text: as §1
The ability of test compounds to inhibit the activity of FBXL10 was determined in 384-well plate format under the following reaction conditions: 0.3 nM FBXL10, 30 nM H3K36me2-biotin labeled peptide (Anaspec cat #64442), 0.2 μM alpha-ketoglutaric acid in assay buffer of 50 mM HEPES, pH7.3, 0.005% Brij35, 0.5 mM TCEP, 0.2 mg/ml BSA, 50 μM sodium L-ascorbate, 5 μM ammonium iron(II) sulfate. Reaction product is determined quantitatively by AlphaScreen detection after the addition of detection reagents anti-H3K36me1 antibody, AlphaScreen® Streptavidin-coated Donor beads, and AlphaScreen® Protein A Acceptor beads in 50 mM HEPES, pH7.3, 10 mM NaCl, 0.005% Brij35, 5 mM EDTA, 2 mg/ml BSA to final 10 μg/ml beads.
The assay reaction was initiated by the following: 3 μl of the mixture of 90 nM H3K36me2-biotin labeled peptide and 0.6 μM alpha-ketoglutaric acid with 3 μl of 11-point serial diluted inhibitor in 3% DMSO are added to each well of 384 well Proxiplate (Perkin Elmer), followed by the addition of 3 μl of 0.9 nM FBXL10 to initiate the reaction. The reaction mixture is incubated at room temperature for 1 hour, and terminated by the addition of 3 μl of appropriate dilution of anti H3K36me1 antibody in 50 mM HEPES, pH7.3, 10 mM NaCl, 0.005% Brij35, 5 mM EDTA, 2 mg/ml BSA. Plates will then incubated at room temperature for 40 minutes, followed by addition of 3 ul of 50 μg/ml AlphaScreen® Streptavidin-coated Donor beads and AlphaScreen® Protein A Acceptor beads in 50 mM HEPES, pH7.3, 10 mM NaCl, 0.005% Brij35, 5 mM EDTA, 2 mg/ml BSA. Plates will then be read by EnVision Multilabel Reader in AlphaScreen mode after minimum 2 hour incubation at room temperature. The AlphaScreen signal for each well is used to determine inhibition constant (IC50).
as §2

Sequence of PHF8 (Q9UPP1 37-1060): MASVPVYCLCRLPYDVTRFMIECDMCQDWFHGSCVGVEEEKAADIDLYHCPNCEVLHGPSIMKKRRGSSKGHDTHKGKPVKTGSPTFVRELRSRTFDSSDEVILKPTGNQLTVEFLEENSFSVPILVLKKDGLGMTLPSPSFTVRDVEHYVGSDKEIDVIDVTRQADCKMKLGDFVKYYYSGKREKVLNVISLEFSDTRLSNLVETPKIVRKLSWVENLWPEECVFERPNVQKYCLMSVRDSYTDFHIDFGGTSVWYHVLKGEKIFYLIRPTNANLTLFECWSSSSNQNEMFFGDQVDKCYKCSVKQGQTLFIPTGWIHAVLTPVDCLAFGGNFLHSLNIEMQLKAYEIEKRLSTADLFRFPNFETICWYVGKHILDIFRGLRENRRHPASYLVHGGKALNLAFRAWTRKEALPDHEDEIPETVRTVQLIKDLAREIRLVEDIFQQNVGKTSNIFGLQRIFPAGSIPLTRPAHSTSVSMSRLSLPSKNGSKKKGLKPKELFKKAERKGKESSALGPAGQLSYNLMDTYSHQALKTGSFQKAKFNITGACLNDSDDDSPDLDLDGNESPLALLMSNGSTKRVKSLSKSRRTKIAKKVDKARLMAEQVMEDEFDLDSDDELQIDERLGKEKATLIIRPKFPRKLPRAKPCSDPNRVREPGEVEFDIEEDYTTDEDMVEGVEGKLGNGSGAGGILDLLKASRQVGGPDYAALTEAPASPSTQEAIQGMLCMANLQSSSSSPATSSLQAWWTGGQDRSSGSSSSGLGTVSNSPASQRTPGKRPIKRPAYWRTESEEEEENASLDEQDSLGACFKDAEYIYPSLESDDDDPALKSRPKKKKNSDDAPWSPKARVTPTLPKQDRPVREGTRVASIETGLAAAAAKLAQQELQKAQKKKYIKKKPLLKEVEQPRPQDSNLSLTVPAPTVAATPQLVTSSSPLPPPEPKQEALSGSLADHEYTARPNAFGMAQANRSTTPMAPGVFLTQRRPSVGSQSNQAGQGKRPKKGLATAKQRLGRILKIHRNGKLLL
Sequence of FBXL10 (Q8NHM5 1-650): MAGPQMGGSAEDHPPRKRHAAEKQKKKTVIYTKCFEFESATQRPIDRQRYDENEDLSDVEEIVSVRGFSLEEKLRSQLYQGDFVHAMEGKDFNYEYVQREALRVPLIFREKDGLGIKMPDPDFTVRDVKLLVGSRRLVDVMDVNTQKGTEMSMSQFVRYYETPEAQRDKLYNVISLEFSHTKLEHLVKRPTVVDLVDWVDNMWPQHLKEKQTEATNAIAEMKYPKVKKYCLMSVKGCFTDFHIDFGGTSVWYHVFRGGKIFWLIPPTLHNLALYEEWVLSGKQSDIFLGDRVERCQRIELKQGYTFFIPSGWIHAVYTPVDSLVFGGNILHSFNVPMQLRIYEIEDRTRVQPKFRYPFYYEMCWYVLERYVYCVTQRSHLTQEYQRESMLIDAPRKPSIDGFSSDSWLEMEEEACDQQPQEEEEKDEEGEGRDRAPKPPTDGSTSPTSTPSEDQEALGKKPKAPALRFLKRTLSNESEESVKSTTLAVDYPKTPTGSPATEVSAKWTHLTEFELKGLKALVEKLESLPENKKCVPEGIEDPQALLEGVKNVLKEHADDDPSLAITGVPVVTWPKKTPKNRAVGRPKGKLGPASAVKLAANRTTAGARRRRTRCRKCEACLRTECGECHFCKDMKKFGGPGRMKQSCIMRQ

| Structure (SMILES) | IC50 (PHF8) [nM] | IC50 (FBXL10) [nM] |
| --- | --- | --- |
| Cn1cnc(-c2cc(-c3nn[nH]c3F)ccn2)c1-c1ccc(F)cc1OCC1CC1 [Example 41, 2-[5-[2-(cyclopropylmethoxy)-4-fluorophenyl]-1-methylimidazol-4-yl]-4-(5-fluoro-1H-triazol-4-yl)pyridine] | 1000 to 10000 | ≤ 100 |
| Ic1[nH]nnc1-c1ccnc(-c2cn(CCc3cccc4ccccc34)cn2)c1 [Example 38, 4-(5-iodo-1H-triazol-4-yl)-2-[1-(2-naphthalen-1-ylethyl)imidazol-4-yl]pyridine] | > 10000 | ≤ 100 |
| Cn1cnc(-c2cc(-c3nn[nH]c3C#N)ccn2)c1-c1ccc(F)cc1OCC1CC1 [Example 39, 4-[2-[5-[2-(cyclopropylmethoxy)-4-fluorophenyl]-1-methylimidazol-4-yl]pyridin-4-yl]-1H-triazole-5-carbonitrile] | 1000 to 10000 | ≤ 100 |
| N#Cc1[nH]nnc1-c1ccnc(-c2cn(CC3CCCc4ccccc43)cn2)c1 (stereo not shown) [Example 15, 4-[2-[1-(1,2,3,4-tetrahydronaphthalen-1-ylmethyl)imidazol-4-yl]pyridin-4-yl]-1H-triazole-5-carbonitrile] | 100 to 1000 | ≤ 100 |
| N#Cc1[nH]nnc1-c1ccnc(-c2cn(CCc3cccc4ccccc34)cn2)c1 [Example 16, 4-[2-[1-(2-naphthalen-1-ylethyl)imidazol-4-yl]pyridin-4-yl]-1H-triazole-5-carbonitrile] | 100 to 1000 | ≤ 100 |
| N#Cc1[nH]nnc1-c1ccnc(-c2cn(Cc3ccccc3Cl)cn2)c1 [Example 13, 4-[2-[1-[(2-chlorophenyl)methyl]imidazol-4-yl]pyridin-4-yl]-1H-triazole-5-carbonitrile] | 1000 to 10000 | ≤ 100 |
| FC(F)(F)c1[nH]nnc1-c1ccnc(-c2cn(CCc3cccc4ccccc34)cn2)c1 [Example 37, 2-[1-(2-naphthalen-1-ylethyl)imidazol-4-yl]-4-[5-(trifluoromethyl)-1H-triazol-4-yl]pyridine] | > 10000 | ≤ 100 |
| FC(F)(F)COc1ccccc1CCn1cnc(-c2cc(-c3c[nH]nn3)ccn2)c1 [Example 10, 4-(1H-triazol-4-yl)-2-[1-[2-[2-(2,2,2-trifluoroethoxy)phenyl]ethyl]imidazol-4-yl]pyridine] | 100 to 1000 | ≤ 100 |
| c1ccc(Oc2ccccc2CCn2cnc(-c3cc(-c4c[nH]nn4)ccn3)c2)cc1 [Example 18, 2-[1-[2-(2-phenoxyphenyl)ethyl]imidazol-4-yl]-4-(1H-triazol-4-yl)pyridine] | 1000 to 10000 | ≤ 100 |
| Fc1[nH]nnc1-c1ccnc(-c2cn(Cc3cccc(Cl)c3Cl)cn2)c1 [Example 20, 2-[1-[(2,3-dichlorophenyl)methyl]imidazol-4-yl]-4-(5-fluoro-1H-triazol-4-yl)pyridine] | 100 to 1000 | ≤ 100 |
| c1ccc2c(c1)OCCC2Cn1cnc(-c2cc(-c3c[nH]nn3)ccn2)c1 (stereo not shown) [Example 12, 2-[1-(3,4-dihydro-2H-chromen-4-ylmethyl)imidazol-4-yl]-4-(1H-triazol-4-yl)pyridine] | ≤ 100 | ≤ 100 |
| FC(F)(F)c1ccccc1CCn1cnc(-c2cc(-c3c[nH]nn3)ccn2)c1 [Example 31, 4-(1H-triazol-4-yl)-2-[1-[2-[2-(trifluoromethyl)phenyl]ethyl]imidazol-4-yl]pyridine] | 100 to 1000 | ≤ 100 |
| COc1cc(-c2c(-c3cc(-c4c[nH]nn4)ccn3)ncn2C)ccc1F [Example 24, 2-[5-(4-fluoro-3-methoxyphenyl)-1-methylimidazol-4-yl]-4-(1H-triazol-4-yl)pyridine] | 100 to 1000 | ≤ 100 |
| c1ccc(COc2ccccc2CCn2cnc(-c3cc(-c4c[nH]nn4)ccn3)c2)cc1 [Example 17, 2-[1-[2-(2-phenylmethoxyphenyl)ethyl]imidazol-4-yl]-4-(1H-triazol-4-yl)pyridine] | 1000 to 10000 | ≤ 100 |
| Cn1cnc(-c2cc(-c3nn[nH]c3Cl)ccn2)c1-c1ccc(F)cc1OCC1CC1 [Example 40, 4-(5-chloro-1H-triazol-4-yl)-2-[5-[2-(cyclopropylmethoxy)-4-fluorophenyl]-1-methylimidazol-4-yl]pyridine] | > 10000 | ≤ 100 |
| Cn1cnc(-c2cc(-c3c[nH]nn3)ccn2)c1-c1ccc(F)cc1 [Example 3, 2-[5-(4-fluorophenyl)-1-methylimidazol-4-yl]-4-(1H-triazol-4-yl)pyridine] | 100 to 1000 | ≤ 100 |
| Fc1[nH]nnc1-c1ccnc(-c2cn(CCc3cccc4ccccc34)cn2)c1 [Example 35, 4-(5-fluoro-1H-triazol-4-yl)-2-[1-(2-naphthalen-1-ylethyl)imidazol-4-yl]pyridine] | 100 to 1000 | ≤ 100 |
| c1ccc(-c2ccccc2CCn2cnc(-c3cc(-c4c[nH]nn4)ccn3)c2)cc1 [Example 27, 2-[1-[2-(2-phenylphenyl)ethyl]imidazol-4-yl]-4-(1H-triazol-4-yl)pyridine] | 1000 to 10000 | – |
| N#Cc1[nH]nnc1-c1ccnc(-c2cn(Cc3cccc(Cl)c3Cl)cn2)c1 [Example 14, 4-[2-[1-[(2,3-dichlorophenyl)methyl]imidazol-4-yl]pyridin-4-yl]-1H-triazole-5-carbonitrile] | 1000 to 10000 | ≤ 100 |
| Fc1c(Cn2cnc(-c3cc(-c4c[nH]nn4)ccn3)c2)cccc1OC(F)(F)F [Example 26, 2-[1-[[2-fluoro-3-(trifluoromethoxy)phenyl]methyl]imidazol-44-yl]-4-(1H-triazol-4-yl)pyridine] | 1000 to 10000 | – |
| CC(C)(Cn1cnc(-c2cc(-c3c[nH]nn3)ccn2)c1)c1ccccc1Cl [Example 32, 2-[1-[2-(2-chlorophenyl)-2-methylpropyl]imidazol-4-yl]-4-(1H-triazol-4-yl)pyridine] | 100 to 1000 | ≤ 100 |
| Clc1cccc(Cn2cnc(-c3cc(-c4nn[nH]c4I)ccn3)c2)c1Cl [Example 19, 2-[1-[(2,3-dichlorophenyl)methyl]imidazol-4-yl]-4-(5-iodo-1H-triazol-4-yl)pyridine] | 100 to 1000 | ≤ 100 |
| Fc1c(Cl)cccc1Cn1cnc(-c2cc(-c3c[nH]nn3)ccn2)c1 [Example 29, 2-[1-[(3-chloro-2-fluorophenyl)methyl]imidazol-4-yl]-4-(1H-triazol-4-yl)pyridine] | ≤ 100 | ≤ 100 |
| CC(Cc1ccccc1)n1cnc(-c2cc(-c3c[nH]nn3)ccn2)c1 (stereo not shown) [Example 33, 2-[1-(1-phenylpropan-2-yl)imidazol-4-yl]-4-(1H-triazol-4-yl)pyridine] | 1000 to 10000 | – |
| Cc1cccc(Cn2cnc(-c3cc(-c4c[nH]nn4)ccn3)c2)c1F [Example 28, 2-[1-[(2-fluoro-3-methylphenyl)methyl]imidazol-4-yl]-4-(1H-triazol-4-yl)pyridin] | 100 to 1000 | ≤ 100 |
| Clc1[nH]nnc1-c1ccnc(-c2cn(CCc3cccc4ccccc34)cn2)c1 [Example 36, 4-(5-chloro-1H-triazol-4-yl)-2-[1-(2-naphthalen-1-ylethyl)imidazol-4-yl]pyridine] | 1000 to 10000 | ≤ 100 |
